The results in this text go back to ChEMBL document CHEMBL4616595, “Targeted suppression of metastasis regulatory transcription factor SOX2 in various cancer cell lines using a sequence-specific designer pyrrole-imidazole polyamide” (Bioorg Med Chem, 2020).

The subject of the experiment is SW-620. As to the kind of experiment: Antiinvasive activity in human SW620 cells assessed as reduction in cell invasion at 2 uM incubated for 72 hrs by crystal violet staining based assay relative to untreated control. The experiment is classed as functional.

The structures appear in SMILES notation.

For `C=C1[C@@H](C)[C@H]2[C@H](Cc3ccccc3)NC(=O)[C@]23[C@H](OC(C)=O)/C=C/[C@@](C)(O)C(=O)[C@@H](C)C/C=C/[C@H]3[C@@H]1O` [CYTOCHALASIN D], the “fold change (FC)” value is recorded as 4.
